# Experimental data as given in patent US20090221559A1 (priority 2005, published 2009).
# Read-outs that look alike come from different tables or passages of the source.
# What was measured:
# [1] = test system: HCV replicon RNA replication in Huh-7 luc/neo (Huh-Luc) cells; test: HCV replicon assay (stable replicon cell reporter assay, luciferase read-out); assay type: cell-based, HCV type 1b
# Experimental: (§1) The compounds of formula (I) were tested for anti-HCV activity in an assay determining their activity against NS5b polymerase and in an HCV replicon assay
# The compounds of the present invention were examined for activity in the inhibition of HCV RNA replication in a cellular assay. […] The cellular assay was based on a bicistronic expression construct, as described by Lohmann et al. (1999) Science vol. 285 pp. 110-113 with modifications described by Krieger et al. (2001) Journal of Virology 75: 4614-4624, in a multi-target screening strategy. In essence, the method was as follows.
# The assay utilized the stably transfected cell line Huh-7 luc/neo (hereafter referred to as Huh-Luc). This cell line harbored an RNA encoding a bicistronic expression construct comprising the wild type NS3-NS5B regions of HCV type 1b translated from an Internal Ribosome Entry Site (IRES) from encephalomyocarditis virus (EMCV), preceded by a reporter portion (FfL-luciferase), and a selectable marker portion (neo^R, neomycine phosphotransferase). The construct was bordered by 5′ and 3′ NTRs (non-translated regions) from HCV type 1b. Continued culture of the replicon cells in the presence of G418 (neo^R) was dependent on the replication of the HCV RNA. The stably transfected replicon cells that expressed HCV RNA, which replicated autonomously and to high levels, encoding inter alia luciferase, were used for screening the antiviral compounds.
# The replicon cells were plated in 384 well plates in the presence of the test and control compounds which were added in various concentrations. Following an incubation of three days, HCV replication was measured by assaying luciferase activity (using standard luciferase assay substrates and reagents and a Perkin Elmer ViewLux™ ultraHTS microplate imager). […] The inhibitory activity of the compound on luciferase activity was monitored on the Huh-Luc cells, enabling a dose-response curve for each test compound.
# [2] = target: T1, HCV NS5B polymerase (His-tagged, C-terminal 21 amino acid deleted NS5B, HC-J4) (Hepatitis C virus genotype 1b, UniProt O92972); test: NS5b polymerase assay (biochemical RdRp assay, 3H-GTP incorporation, SPA beads); parameters: species or system HCV genotype 1b
# T1 construct: The cDNA encoding NS5B amino acid 1-570 (HC-J4, genotype 1b); His tag (His6, from pET-21b) (C); made in house; host or cells: E. coli BL21 (DE3)
# Experimental: as §1
# The cDNA encoding NS5B amino acid 1-570 (HC-J4, genotype 1b, pCV-J4L6S, genebank accession number AF054247) was subcloned into the Nhe I and Xho I restriction sites of pET-21b. Expression of the subsequent His-tagged C-terminal 21 amino acid deleted NS5B was performed as follows:
# Following transformation in BL21 (DE3) competent cells, bacterial cells were grown in 22 liter LB/Amp media until to reach OD600=0.4-0.6. Protein expression was induced by addition of IPTG 0.4 mM, supplemented with 10 μM MgCl2, and incubated for 14-16 hrs at 20° C. Cells were harvested, resuspended in lysis buffer (20 mM Tris-HCl pH=7.5, 0.3 M NaCl, 10% glycerol, 0.1% NP40, 4 mM MgCl2, 14 mM beta-mercaptoethanol, with tablet of EDTA-free protease cocktail inhibitors) and lysed by sonification. The cell lysate was cleared by high-speed centrifugation (20K×g for 30 min), captured on Ni-NTA beads for 70 min at 4° C., and eluted with 25 mM Hepes pH 7.5, 0.5 M NaCl, 10% glycerol, 14 mM BME, 500 mM imidazole. The eluent was dialysed against 25 mM Hepes pH 7.5, 10% glycerol, 50 mM NaCl, 14 mM BME, after which the protein was further purified by heparin chromatography using the same buffer with 1 M NaCl for elution. Fractions containing pure protein were collected, dialyzed against storage buffer 25 mM Hepes pH=7.5, 300 mM NaCl, 10% glycerol, 14 mM BME), and flash-freezed in liquid nitrogen.
# Measurement of HCV NS5B polymerization activity was performed by evaluating the amount of radiolabeled GTP incorporated by the enzyme in a newly synthesized RNA using heteropolymeric RNA template/primer. The highthroughput RdRp assay was carried out in 384-well plates using 200 nM enzyme, 0.1 μCi of ^3H GTP, 5 mM MgCl2, 600 nM GTP, 30 nM PolyC, 300 nM 5′-biotinylated oligo(rG13)/poly(rC) in 20 mM Tris pH 7.5, 21 mM KCl, 2.5 mM DTT, 16.7 mM NaCl and 0.17 mM EDTA. Test compounds were dissolved in dimethylsulfoxide. The test compounds were added to the preformed polymerase-template complex, and incubated at room temperature (RT) for 15 min before the addition of NTPs. The 30-μl reaction was terminated after 2 h at 25° C. upon addition of 30-μl PVT-SPA beads (Amersham Biosciences RPNQ0009, 5 mg/ml in 0.5 M EDTA).
# [3] = NS5B Polymerase Assay IC50, 200 nM enzyme, 3H-GTP incorporation, 2 h at 25° C.
# [4] = Hepatitis C virus, Huh-7, 72 h, read-out: Replicon Assay EC50, Huh-Luc cells, three days incubation, luciferase activity
# [5] = Huh-Luc cells, three days incubation, luciferase activity, read-out: Replicon Assay EC50
# [6] = 200 nM enzyme, 3H-GTP incorporation, 2 h at 25° C., read-out: NS5B Polymerase Assay IC50
# [7] = Hepatitis C virus, Huh-7, 72 h, read-out: Replicon Assay EC50 (μM), Huh-Luc cells, incubation of three days, luciferase activity
# [8] = NS5B Polymerase Assay IC50 (μM)
# T1 sequence (O92972 2417-3000, looked up, stated change not applied): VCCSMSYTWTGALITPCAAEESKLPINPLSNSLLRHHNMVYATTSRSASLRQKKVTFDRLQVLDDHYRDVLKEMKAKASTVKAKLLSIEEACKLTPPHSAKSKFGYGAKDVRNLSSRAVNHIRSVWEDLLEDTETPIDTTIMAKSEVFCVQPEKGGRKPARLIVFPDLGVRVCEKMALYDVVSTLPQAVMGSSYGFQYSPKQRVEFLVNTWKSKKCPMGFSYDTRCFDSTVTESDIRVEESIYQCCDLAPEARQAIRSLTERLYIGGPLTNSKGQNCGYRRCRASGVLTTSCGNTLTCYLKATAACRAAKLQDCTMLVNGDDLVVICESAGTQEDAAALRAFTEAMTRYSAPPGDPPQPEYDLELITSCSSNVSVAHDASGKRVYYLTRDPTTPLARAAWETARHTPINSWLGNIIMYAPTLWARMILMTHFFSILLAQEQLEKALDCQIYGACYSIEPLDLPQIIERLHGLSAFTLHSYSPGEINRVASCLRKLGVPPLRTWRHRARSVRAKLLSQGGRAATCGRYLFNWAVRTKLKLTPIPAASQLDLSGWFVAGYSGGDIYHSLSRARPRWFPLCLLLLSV
smiles,measurement,setting,value
"CC(=O)N1c2ccccc2NC2=C(C(=O)CC(C)(C)C2)C1c1ccc(Cl)cc1Cl (single isomer, unassigned) [compound 35, 10-Acetyl-11-(2,4-dichlorophenyl)-2,3,4,5,10,11-hexahydro-3,3-dimethyl-1H-dibenzo[b,e][1,4]diazepin-1-one]",EC50,"[1]; read-out: Replicon Assay EC50, Huh-Luc cells, three days incubation, luciferase activity",20.5 µM
same,IC50,[2]; [3],1.28 µM
CCCCC(=O)N1c2ccccc2NC2=C(C(=O)CC(C)(C)C2)C1c1ccc(-c2cccc([N+](=O)[O-])c2)o1 (stereo not drawn) [compound 255],EC50,[1]; [4],21.8 µM
same,IC50,[2]; [3],> 42.7 µM
CCN(CC)c1ccc(C2C3=C(CC(C)(C)CC3=O)Nc3ccccc3N2C(=O)C(F)(F)F)cc1 (stereo not drawn) [compound 109],EC50,[1]; [4],> 32 µM
same,IC50,[2]; [3],> 42.7 µM
Cc1ccc(C2CC(=O)C3=C(C2)Nc2ccccc2N(C(=O)c2ccccc2)C3c2cccc(Cl)c2)cc1 (mixture of isomers) [compound 204],EC50,[1]; [5],9.96 µM
same,IC50,[2]; [6],> 33.3 µM
Cc1ccc(C2CC(=O)C3=C(C2)Nc2ccccc2NC3c2ccc(C)cc2)cc1 (stereo not drawn) [compound 408],EC50,[1]; [7],14.2 µM
same,IC50,[2]; [8],> 33.3 µM
Cc1ccc(C2Nc3ccccc3NC3=C2C(=O)CC(c2ccccc2Cl)C3)cc1 (stereo not drawn) [compound 395],EC50,[1]; [7],9.91 µM
same,IC50,[2]; [8],> 42.7 µM
O=C1CC(c2cccc([N+](=O)[O-])c2)CC2=C1C(c1ccc(Cl)cc1)N(C(=O)C(F)(F)F)c1ccccc1N2 (mixture of isomers) [compound 214],IC50,[2]; [6],> 42.7 µM
COc1ccc(C2C3=C(CC(C)(C)CC3=O)Nc3ccccc3N2C(=O)c2ccccc2)cc1OCc1ccccc1 (stereo not drawn) [compound 51],EC50,[1]; [5],7.66 µM
O=C1C[C@@H](c2ccc(Cl)cc2)CC2=C1[C@H](c1cc3c(cc1Br)OCO3)Nc1ccccc1N2 [compound 479],IC50,[2]; [8],> 42.7 µM
CC1(C)CC(=O)C2=C(C1)Nc1ccccc1N(C(=O)NCc1ccccc1)C2c1ccc(Cl)cc1Cl (stereo not drawn) [compound 159],EC50,[1]; [5],9.59 µM
COc1ccc(C2CC(=O)C3=C(C2)Nc2ccccc2NC3c2ccccc2OC(C)C)cc1 (stereo not drawn) [compound 333],IC50,[2]; [8],> 42.7 µM
CC1(C)CC(=O)C2=C(C1)Nc1ccccc1N(C(=O)NCc1ccoc1)C2c1ccc(Cl)cc1Cl (stereo not drawn) [compound 158],EC50,[1]; [5],31.1 µM
CC1(C)CC(=O)C2=C(C1)Nc1ccccc1N(C(=O)Cc1ccccc1)C2c1ccc(-c2ccc([N+](=O)[O-])cc2)o1 (stereo not drawn) [compound 238],IC50,[2]; [3],> 42.7 µM
CCC(=O)N1c2ccccc2NC2=C(C(=O)CC(c3cccc([N+](=O)[O-])c3)C2)C1c1ccc(Cl)cc1 (mixture of isomers) [compound 211],IC50,[2]; [6],> 42.7 µM
Cc1ccc(C2C3=C(CC(c4cccc(Cl)c4)CC3=O)Nc3ccccc3N2C(=O)C(F)(F)F)cc1 (stereo not drawn) [compound 225],IC50,[2]; [6],> 42.7 µM
CCCCCC(=O)N1c2ccccc2NC2=C(C(=O)CC(c3ccco3)C2)C1c1cccc([N+](=O)[O-])c1 (stereo not drawn) [compound 290],IC50,[2]; [3],> 42.7 µM
CC1(C)CC(=O)C2=C(C1)Nc1ccccc1N(C(=O)Cc1ccccc1)C2c1ccc(Br)cc1 (stereo not drawn) [compound 95],IC50,[2]; [3],> 33.3 µM
COc1ccc(OC)c(C2Nc3ccccc3NC3=C2C(=O)CC(c2ccccc2)C3)c1 (stereo not drawn) [compound 351],IC50,[2]; [8],> 42.7 µM
"CC(=O)N1c2ccccc2NC2=C(C(=O)CC(C)(C)C2)C1c1ccc(OCc2ccccc2)c(Cl)c1 (single isomer, unassigned) [compound 303, 10-acetyl-11-[4-benzyloxy-3-chlorophenyl]-3,3-dimethyl-2,3,4,5,10,11-hexahydro-1H-dibenzo[b,e][1,4]diazepin-1-one]",IC50,[2]; [3],31.5 µM
CC1(C)CC(=O)C2=C(C1)Nc1ccccc1N(C(=O)C(F)(F)F)C2/C(Br)=C/c1ccccc1 (stereo not drawn) [compound 256],EC50,[1]; [4],3.98 µM
CC1(C)CC(=O)C2=C(C1)Nc1ccccc1N(C(=O)c1ccccc1)C2c1ccc(-c2cccc([N+](=O)[O-])c2)o1 (stereo not drawn) [compound 272],IC50,[2]; [3],> 42.7 µM
COc1ccc(C2CC(=O)C3=C(C2)Nc2ccccc2NC3c2c(F)cccc2Cl)cc1 (stereo not drawn) [compound 334],IC50,[2]; [8],> 42.7 µM
CC(C)C(=O)N1c2ccccc2NC2=C(C(=O)CC(C)(C)C2)C1c1ccc([N+](=O)[O-])s1 (stereo not drawn) [compound 239],IC50,[2]; [3],> 42.7 µM
O=C1C[C@@H](c2ccc(Cl)cc2)CC2=C1[C@H](c1cc3c(cc1[N+](=O)[O-])OCO3)Nc1ccccc1N2 [compound 475],IC50,[2]; [8],> 42.7 µM
